# Legend:
# [1] = tested on: binding between human C1q protein and alkaline phosphatase (ALP)-labeled human immunoglobulin (IgG); assay: Inhibition of the binding between an immunoglobulin and C1q (C1q spotted on nitrocellulose membrane, ALP-labeled IgG detection); settings: peptide 500 μg/ml; 400 ng human C1q per spot; ALP-labeled human IgG diluted 1000-fold; room temperature, one hour
# Source text: It was investigated whether or not the 9 residue-peptide CKVPGLYYF (SEQ ID NO: 2) considered to be necessary for the binding between C1q and an immunoglobulin (IgG) inhibits the binding between C1q and an immunoglobulin. Peptide (R2) having the amino acid sequence of SEQ ID NO: 2, peptide (R1) having a shorter amino acid sequence than this peptide, PGLYYF (SEQ ID NO: 1), as well as peptide (R3) having the amino acid sequence SGKFTCKVPGLYYFT (SEQ ID NO: 3), peptide (R4) having the amino acid sequence FTCKVPGLYYFTYHA (SEQ ID NO: 4), peptide (R5) having the amino acid sequence STGKFTCKVPGLYYF (SEQ ID NO: 5), and peptide (R6) having the amino acid sequence CKVPGLYYFVYHASH (SEQ ID NO: 7), which contain the amino acid sequence indicated by SEQ ID NO: 2, were prepared by outsourcing to GL Biochem (Shanghai). Each peptide was dissolved in dimethylsulfoxide so as to reach a concentration of 10 mg/ml and stored.
# Human C1q protein (manufactured by Carbiochem) was dissolved in 10 mM HEPES, 300 mM NaCl and 40% glycerol (pH 7.2) to prepare a 200 μg/ml human C1q protein solution.
# The human C1q protein solution was spotted at 2 μl (400 ng) each onto a 5 mm×15 mm size nitrocellulose membrane (Hybond C; manufactured by Amersham), which was air-dried at room temperature for approximately one hour. The nitrocellulose membrane was soaked in TBS, incubated for 5 minutes, and blocked at room temperature for one hour using TBS (20 mM Tris-HCl pH 7.5, 150 mM NaCl) containing 5% blocking agent (Amersham ECL blocking reagent; manufactured by GE Healthcare). After a slight wash in TBS, the membrane was soaked in 20 μl of a mixed solution of alkaline phosphatase (ALP)-labeled human immunoglobulin (IgG) (manufactured by BECKMAN COULTER) diluted 1000-fold in TBS and each peptide so as to reach a concentration of 500 μg/ml, and let it react at room temperature for one hour. After a slight wash in TTBS solution (TBS added with Tween 20 to a final concentration of 0.05%), the membrane was washed in the same solution for 10 minutes, shaking three times.
# After the nitrocellulose membrane was washed slightly in ALP coloring buffer (Tris-HCl containing 100 mM NaCl, 5 mM MgCl2, pH 9.5), it was soaked in 30 μl ALP coloring buffer containing BCIP/NBT solution (manufactured by Promega), and colored at room temperature for 10 minutes. Upon obtaining a staining image, the nitrocellulose membrane was soaked in a sufficient amount of distilled water to wash away the coloring buffer. After washing the nitrocellulose membrane was air-dried and the staining image was captured using Multi Gauge (FUJIFILM). […]
# [2] = tested on: Type III allergic (Arthus) reaction-induced rat; assay: Type III allergic (Arthus) reaction model, Evans blue dye leakage; assay type: in vivo
# Description: The test for peptide R1, R2 and R5 using 64 male rats of the Slc:Wistar strain, which were 7 weeks old was carried out in twice, i.e. for each administration method (intraperitoneal administration and tail vein administration). Acclimation was carried out by giving normal solid chow CRF-1 for 9 days or longer. The day prior to administration, the dorsal hair of the animal was shaved, and on the administration day, a solution of OVA+Evans blue dye mix was administered into the tail vein. Each peptide solution was administered, 30 minutes after administration of a solution of OVA+Evans blue dye mix if administered intraperitoneally or 50 minutes after if administered into the tail vein, respectively. Regarding intracutaneous administration of anti-OVA solution, the solution was intradermally administered to the dorsal region of the animal at a dose of 0.1 ml/site, 30 minutes after administration of the test substance in case of intraperitoneal administration or 10 minutes after in case of intravenous administration, to induce locally an Arthus reaction. Four hours after the induction, the animals were euthanized, the blood was removed thoroughly, and then the dorsal skin was removed. The Arthus reaction site on the removed skin was punched out, and the Evans blue dye was extracted from this skin overnight. The amount of dye leaked was quantified by measuring the absorbance for Evans blue dye with a spectrophotometer and using a calibration curve (note that, regarding experimental methods used in Example 4, reference should be made to H. Okamoto, Y. Iwahisa and M. Terasawa: Suppression of the Arthus reaction by Y-24180, a potent and specific antagonist of platelet-activating factor. Agents Actions, 35: 149-158 (1992)).
# The predetermined weighed amounts of each peptide (peptides R1, R2 and R5) were dissolved in physiological saline respectively to obtain a 20 mg/ml solution. A 2 mg/ml solution was prepared by diluting 10-fold a 20 mg/mL solutions with physiological saline. 5 mg/ml solutions were prepared by dissolving each peptide in predetermined weighed amounts in physiological saline to obtain preparation solutions.
# A solution of OVA+Evans blue dye mix was administered into the tail vein at 2 ml/kg. Each peptide solution was administered, 30 minutes after administration of the solution of OVA+Evans blue dye mix if administered intraperitoneally or 50 minutes after if administered into the tail vein, respectively. Regarding intracutaneous administration of anti-OVA solution, the solution was intradermally administered to the dorsal region of the animal at a dose of 0.1 ml/site, 30 minutes after administration of the test substance in case of intraperitoneal administration or 10 minutes after in case of intravenous administration, to induce locally an Arthus reaction. Intracutaneous administration was such that there were two PBS sites and two ant-OVA solution sites per animal. Four hours after the induction, the animals were euthanized by decapitation under ether anesthesia, the blood was removed thoroughly, and then the dorsal skin was removed. […]
# The skin strip that was punched out with a punch was slit at several locations, soaked in 2 ml of dye extraction solution, and shaken and agitated for 10 minutes. […] The amount of dye leaked was calculated from the dye amount calibration curve.
# The group mean values (mean)±standard deviation (SD) were calculated for the body weight measurement values and the amounts of dye leaked. […]
# [3] = tested on: monoclonal antibody cocktail-induced arthritis mice; assay: Arthritis inhibitory action on an arthritis-induced mouse-2 (clinical score, general state, body weight); assay type: in vivo; settings: 10 mg/kg intraperitoneally twice daily from day 0 for 14 days
# Description: The arthritis inhibitory action of the peptides indicated in Example 2 as R1, R2 and R5 was examined using monoclonal antibody cocktail-induced arthritis mice. An arthritis-inducing monoclonal antibody cocktail was intravenously administered at 2 mg/individual, and three days later, LPS was intraperitoneally administered at 50 μg/individual to the mice to induce arthritis. For each peptide, from the day the arthritis-inducing monoclonal antibody cocktail was administered (day 0), continuous administration was carried out at 10 mg/kg each, twice daily, for 14 days, and the arthritis inhibitory action was examined by clinical scoring. Note that the experiments were carried out by similar methods to Example 3 (1).
# Based on the animal body weight, the required amount of each peptide was calculated. A solution was prepared with a 0.5% methyl cellulose solution so as to reach a concentration of 1 mg/ml, and was stored refrigerated.
# With the day the arthritis-inducing monoclonal antibody cocktail was administered as day 0, the animal's body weight was measured on day 0, 3, 6, 9, 12 and 14 during the test period. General state observation was carried out daily.
# The body weight was measured on the day prior to starting administration and randomly assigned with a grouping software so that the average body weight value of each group was approximately the equal. To twenty 7 week-old mice, an arthritis-inducing monoclonal antibody cocktail were intravenously administered at 2 mg/individual on day 0, and LPS was intraperitoneally administered at 50 μg/individual on day 3.
# Each peptide solution was intraperitoneally administered twice daily, in the morning and in the afternoon, from day 0. As a control, 0.5% methyl cellulose solution was intraperitoneally administered twice daily from day 0. For administration, a syringe needle (26G, Terumo) and a syringe barrel (1.0 ml capacity, Terumo) were used. The dosage was 10 ml/kg. […]
# [4] = tested on: monoclonal antibody cocktail-induced arthritis mice (BALB/c Cr Slc (SPF)); assay: Arthritis inhibitory action on an arthritis-induced mouse-1 (clinical score); assay type: in vivo
# Description: Using monoclonal antibody cocktail-induced arthritis mice (BALB/c Cr Slc (SPF)), the arthritis inhibitory action of the peptide indicated as R5 in Example 2 was examined. Arthritis was induced by intravenous administration of 2 mg/individual of an arthritis-inducing monoclonal antibody cocktail, followed by intraperitoneal administration of 50 μg/individual of Lipopolysaccharide (LPS) three days later. From the day following LPS administration (day 4) until day 14, 10 mg/kg of peptide. R5 was intraperitoneally administered once daily or twice daily. The positive control agent methotrexate was orally administered once daily at 0.1 mg/kg from day 4. The clinical score of the extremities was measured on even days from day 0 to day 14. Under anesthesia, blood was removed with heparin-containing physiological saline, ice-cold 4% paraformaldehyde solution was continuously injected to perfusion-fix the whole body. After perfusion-fixation subsequent, both hind limbs knee joints (the center of the femur and the center of the tibia were cut; skin and muscles were removed) and heel joints (from the center of the tibia to the toe tips) were excised and further immersion-fixed with 4% paraformaldehyde solution overnight (4° C.). Thereafter, both knee and heel joints were transferred to 50 mM PBS (4° C.), then soft x-ray radiography of the heel articulations were taken from two directions (internal side direction and upper side direction).
# Based on the animal body weight, the required amount was calculated for the peptide. A peptide solution was prepared with a 0.5% methyl cellulose solution so as to reach a concentration of 1 mg/ml, and the prepared peptide solution was stored refrigerated. […]
# With the day the arthritis-inducing monoclonal antibody cocktail was administered as day 0, the animal's body weight was measured on day 0, 3, 6, 9, 12 and 14 during the test period. […]
# [5] = intraperitoneal administration, 10 mg/kg or 100 mg/kg
# [6] = tail vein administration, 10 mg/kg
inhibition of the binding between C1q and an immunoglobulin (IgG) [1],Substance,"inhibitory action on immune-complex disease (amount of dye leaked) [2, 5]","inhibitory action on immune-complex disease (amount of dye leaked) [2, 6]",arthritis inhibitory action (clinical score) [3],"arthritis inhibition (clinical score) ([4]; 10 mg/kg intraperitoneally once daily or twice daily, day 4 until day 14)","difference in effectiveness between once daily administration and twice daily administration ([4]; 10 mg/kg intraperitoneally, day 4 until day 14)","level of arthritis inhibition compared with methotrexate ([4]; peptide 10 mg/kg intraperitoneally, methotrexate 0.1 mg/kg orally once daily from day 4)"
inhibited,CKVPGLYYF (Immunoglobulin binding peptide) [R2],clear and sufficient inhibitory action,clear and sufficient inhibitory action,Arthritis inhibitory action was observed,–,–,–
inhibited,PGLYYF (Immunoglobulin binding peptide) [R1],clear and sufficient inhibitory action,clear and sufficient inhibitory action,Arthritis inhibitory action was observed,–,–,–

# More lines, now with the values behind:
Substance,inhibition of the binding between C1q and an immunoglobulin (IgG) [1],"inhibitory action on immune-complex disease (amount of dye leaked) [2, 5]","inhibitory action on immune-complex disease (amount of dye leaked) [2, 6]",arthritis inhibitory action (clinical score) [3],"arthritis inhibition (clinical score) ([4]; 10 mg/kg intraperitoneally once daily or twice daily, day 4 until day 14)","difference in effectiveness between once daily administration and twice daily administration ([4]; 10 mg/kg intraperitoneally, day 4 until day 14)","level of arthritis inhibition compared with methotrexate ([4]; peptide 10 mg/kg intraperitoneally, methotrexate 0.1 mg/kg orally once daily from day 4)"
CKAPGLYYF (Immunoglobulin binding peptide) [R10],inhibit,–,–,–,–,–,–
STAKFTCKVPGLYYF (Immunoglobulin binding peptide) [R11],inhibit,–,–,–,–,–,–
STGKFTCKVPGLYYF (Immunoglobulin binding peptide) [R5],–,clear and sufficient inhibitory action,–,Arthritis inhibitory action was observed,an effect on arthritis inhibition was observed,no significant difference,higher than that of methotrexate
